This assay addresses T1, porcine pancreatic elastase (PPE) (Sus scrofa, UniProt P00772).
T1 construct: gene CELA1
Nature of the assay: Chromogenic elastase inhibition assay with SANA substrate, p-nitroaniline release. It is filed as biochemical.

T1 sequence (P00772 27-266): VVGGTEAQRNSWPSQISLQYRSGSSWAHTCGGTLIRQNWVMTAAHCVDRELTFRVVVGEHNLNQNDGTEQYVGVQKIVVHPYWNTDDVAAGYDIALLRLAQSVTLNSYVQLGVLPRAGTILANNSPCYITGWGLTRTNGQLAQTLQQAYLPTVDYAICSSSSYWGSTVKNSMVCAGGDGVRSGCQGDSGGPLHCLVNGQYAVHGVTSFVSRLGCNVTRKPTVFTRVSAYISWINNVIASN

`Cc1cc(C)cc(Cn2c(SCC(=O)Nc3ccc(C)cc3Cl)nc3ccccc32)c1` [compound 2, N-(2-chloro-4-methylphenyl)-2-[[1-[(3,5-dimethylphenyl)methyl]-1H-benzimidazol-2-yl]thio]acetamide]: the IC50 (as a rule, the concentration needed to halve the response being measured) amounted to 60.4 ± 1.98 µM.

The record behind these values is publication PMC11508974, “Computational Approach to Identifying New Chemical Entities as Elastase Inhibitors with Potential Antiaging Effects” (International Journal of Molecular Sciences, 2024).
